In patent US12102690B2, “Preparation method and application of biomimetic nano-protectant for detoxifying dox-induced cardiac and systemic toxicity” (priority 2021, dated 2024):

How the values were obtained:
[1] = system: H9C2 myocardial cells; assay: Survival rate of myocardial cells with CCK-8 reagent after IC50 dose of DOX; format: cell-based, rat; settings: DOX group alone, 24 h
Protocol: Different doses of biomimetic nano-protectant DNA&Pro@RBCM-PCM/KALA were added into H9C2 myocardial cells for incubation for 4 h; then, IC50 (50% Inhibitory Concentration) dose of DOX was added; the survival rate of H9C2 myocardial cells was detected with a CCK-8 reagent after 24 h; and a DOX group alone (with a DNA concentration of 0) and a treatment-free NC group (Negative Control) were set as experimental control groups. […] To further describe the protection mechanism of the biomimetic nano-protectant PCM/KALA-RBCM@DNA&Pro, in the invention, a dose of the biomimetic nano-protectant PCM/KALA-RBCM@DNA&Pr (NPs) is determined for protecting the damage of the IC50 dose of DOX to the H9C2 myocardial cells, while three important apoptosis pathway signal molecules (including Bax, Bcl2 and Caspase-3) are selected for Western Blot (WB) test (see FIG. 12).

[2] = system: TC1 cells subcutaneous transplanted tumor model of cervical cancer; assay: Tumor inhibition in subcutaneous transplanted tumor model of cervical cancer; format: in vivo; settings: Day24, TC1 tumor-bearing B6 rats
Protocol: (§1) When the tumor volume reached 70-80 mm^3, the NPs+DOX group, the DOX group alone and the NC group were performed respectively; and then changes in size of tumor tissues and the changes in weight of B6 rats were observed and measured from Day0 to Day24. […] However, the volume of tumor tissues in the NC group increases to about 200 times of the initial volume on Day24 (FIG. 20A). […] Meanwhile, due to the rapid growth of tumor tissues in the NC group, the weight of NC group is increased greatly (FIG. 20B).

[3] = Change in weight of tumor-bearing B6 rats; format: in vivo; settings: Day0 to Day24, TC1 tumor-bearing B6 rats
Protocol: as §1

COc1cccc2c1C(=O)c1c(O)c3c(c(O)c1C2=O)C[C@@](O)(C(=O)CO)C[C@@H]3O[C@H]1C[C@H](N)[C@H](O)[C@H](C)O1 [DOX, doxorubicin]
survival rate of H9C2 cells [1]: about 50%
tumor volume at the end of Day24 relative to the initial volume [2]: about 15 times of the initial volume
change in weight of B6 rats [3]: sudden loss of weight
